Assay results published in patent publication US11607404B2, “Combinations of RAD51 and PARP inhibitors” (Cyteir Therapeutics, Inc., priority 2019, dated 2023).
Read-outs that look alike come from different tables or passages of the source.

Columns and labels:
[1] = tested on: Daudi cell line (AID positive); assay: Primary screening cell killing assay (Cell-Titer Glo, Day 7); format: cell-based; settings: Homo sapiens, 168 h; Daudi cells (AID positive), cell death on Day 7; read-out: AID+ EC50
Experimental: (§1) Primary screening was a phenotypic screen that utilized the synthetic lethal interaction between AID and RAD51 to identify compounds that were both potent and on target. AID expressing cells are dependent upon RAD51 for survival; inhibiting RAD51 in AID positive cells results in a cytotoxic effect.
The first step was to set up a cell killing assay in the Daudi cell line (AID positive). A 96 well u-bottom plate was prepared by writing the experiment number, plate number, date and initials in the top right corner of the plate lid. With a sterile 300 ml reservoir, and 25 ml serological pipette, evaporation buffer media was pipetted into reservoir in 25 ml increments. Using the liquid handler, 150 ul of evaporation buffer media was pipetted from reservoir into rows A and H, and Columns 1 and 12 of the 96 well u-bottom plate. Cell cultures were counted to obtain the density of cells per ml, and the culture viability. The cell density information was used to obtain 1,000,000 cells from culture using a 5 mL serological pipette into an epi tube. The cell density information from the culture was used to calculate the number of cells and volume of media needed for the assay to seed 1250 cells in 130 ul of media per available culture well in the 96 well u-bottom plate. Rows B through F were used for cells (50 wells in total), with row G left for an empty media control. The calculation was overestimated by 10 mL to account for the dead volume in the 300 ml reservoir. Once the media volume was calculated, the appropriate volume of media was pipetted in 25 mL increments into the 250 mL bottle using a 25 mL serological pipette. The 250 ml bottle was capped tightly, and placed into a 37° C. water bath for 2 minutes. While the culture media was warming, 10 mL of fresh media was pipetted from the 500 mL culture media bottle into a sterile 25 mL reservoir. Using the Eppendorf multichannel pipette, 130 ul of media was piptted from the 25 mL reservoir into row G of the 96 well u-bottom plate. Once the 250 mL bottle of media was warmed, the volume of culture needed was pipetted into the bottle, and mixed gently with a 25 mL serological pipette as to not create bubbles, and then the contents of the bottle were pipetted into a new 300 mL reservoir. Using the liquid handler, 130 ul of culture was pipetted from the 300 mL reservoir into rows B through F of the 96 well u-bottom plate. Once the culture was added, the plate was placed into a 37° C. incubator until the compound master plate was prepared for use.
Two 96 well u-bottom plates were prepared by writing the master plate name in the upper right corner of the plate lid. Labeling one DMSO master and the other Media Master. The compounds of interest were obtained from the laboratory freezer, and placed into a 25 well storage box with a lid, and set the box aside. The compounds were vortexed after thawing but before use. Using an automatic multichannel pipette, 20 ul of 100% DMSO was pipetted into wells B3-B11 through G3-G11 of the DMSO master plate. For each compound on the master plate, 50 ul of the compound were pipetted in the appropriate well of row 2 (reference plate map to determine appropriate well). A serial dilution was prepared beginning by aspirating 20 ul from row 2 and mixing with row 3, repeating until row 11 was reached. Using the liquid handler, 194 ul of Daudi media was dispensed into wells B2-B11 through G2-G11 of the Media master plate. Using the liquid handler, 6 ul from the DMSO master plate was aspirated and dispensed into the media master plate, mixing 100 ul twice.
Compounds from master plate were then added to the culture plate. The culture plates were removed from the incubator, and set inside the biosafety cabinet. Using a liquid handler, 20 ul from wells B2 to B11 through G2 to G11 of master plate were aspirated, and dispensed into wells B2 to B11 through G2 to G11 of culture plate. This set was continued with each culture plate. […]

[2] = Bi-directional Caco-2 permeability; format: in vitro ADME; settings: human; for Papp A→B / Papp B→A: Caco-2, 37 C, up to 90 minutes; for Papp A→B: apical to basolateral, read-out: AB Papp (cm/sec × 10^6); for Papp B→A: basolateral to apical, read-out: BA Papp (cm/sec × 10^6); for efflux ratio: Caco-2 efflux ratio, read-out: BA/AB Ratio
Experimental: Bi-directional Caco-2 permeability was assayed. Caco-2 cells were seeded onto permeable polycarbonate supports and allowed to differentiate for about 3 weeks prior to being used in the assays. The cells were then exposed to the compounds from either the apical or basolateral sides and incubated at 37 C for up to 90 minutes under light agitation. Compound transport was then measured using LC/MS/MS analysis at 30, 60, and 90 minutes.

[3] = tested on: WI-38 cells (AID negative); assay: Primary screening cell killing assay repeated in AID negative cells; format: cell-based, Human; settings: WI-38 cells (AID negative); read-out: AID− EC50
Experimental: as §1
Percent cell death and EC50 values were calculated by comparing the cell viability of the compound treated wells to the non-treated wells. Normalized RLU values were obtained by subtracting the media well values from each of the wells in the same column, and then dividing that value by the DMSO treated cells values. The percent kill was then calculated by subtracting the normalized RLU value from 1 and multiplying by 100. The average normalized percent kill value and standard error of the mean was then calculated. The kill values were then inputted into Prism with the corresponding standard errors. In Prism a non-linear regression line was plotted with the data points using a semi-log scale, and the EC50 value was calculated.
The activity of the claimed compounds was measured in a variety of cell lines with different expression levels of activation induced cytidine deaminase (AICDA). The potency assay was repeated in all of the listed cell lines and the EC50 values recorded.

[4] = Caco-2, apical to basolateral, read-out: AB Recovery %
[5] = Caco-2, basolateral to apical, read-out: BA Recovery %

Compound	EC50 [1]	recovery at 90 min [2, 4]	recovery at 90 min [2, 5]	other results
CC(C)OC(=O)Nc1ccc(-c2cnc(C3CC[C@@H](NC(=O)OC(C)C)CO3)s2)c(S(=O)(=O)NC(C)(C)C)c1 (mixture of isomers) [Compound 60]	≤ 1000 nM	–	–	–
CC(C)OC(=O)Nc1ccc(-c2cnc([C@@H]3CC[C@@H](NC(=O)OC(C)C)CN3)s2)c(S(=O)(=O)NC(C)(C)C)c1 (relative stereo) [Compound 63]	≤ 1000 nM	–	–	–
CC(C)OC(=O)Nc1ccc(-c2cnc(C3CCC(NC(=O)OC4CCCC4)CC3)s2)c(S(=O)(=O)NC(C)(C)C)c1 (centres unmarked) [Compound 7]	≤ 1000 nM	55.9%	92%	Papp A→B [2]: 1.7 ×10⁻⁶ cm/s; Papp B→A [2]: 2.1 ×10⁻⁶ cm/s; efflux ratio [2]: 1.2
CC(C)OC(=O)Nc1ccc(-c2cnc(C3CCC(NC(=O)OC[C@@H]4CCCN4C)CC3)s2)c(S(=O)(=O)NC(C)(C)C)c1 (some centres unmarked) [Compound 9]	≤ 1000 nM	–	–	–
CN1CCC[C@@H]1COC(=O)NC1CCC(c2ncc(-c3ccc(NC(=O)NCc4ccccc4)cc3S(=O)(=O)NC(C)(C)C)s2)CC1 (some centres unmarked) [Compound 11]	≤ 1000 nM	–	–	–
CN1CCC[C@H]1COC(=O)N[C@H]1CC[C@H](c2ncc(-c3ccc(NC(=O)NCc4ccccc4)cc3S(=O)(=O)NC(C)(C)C)s2)CC1 [Compound 12]	≤ 1000 nM	–	–	–
CC(C)OC(=O)Nc1ccc(-c2cnc(C34CCC(NC(=O)OC(C)C)(CC3)CC4)s2)c(S(=O)(=O)NC(C)(C)C)c1 [Compound 17]	≤ 1000 nM	–	–	–
CC(C)NC(=O)OC1CCC(c2ncc(-c3ccc(NC(=O)OC(C)C)cc3S(=O)(=O)NC(C)(C)C)s2)CC1 (centres unmarked) [Compound 20]	> 1000 nM	44.8%	96.6%	Papp A→B [2]: 9.4 ×10⁻⁶ cm/s; Papp B→A [2]: 10.4 ×10⁻⁶ cm/s; efflux ratio [2]: 1.1
CC(C)NC(=O)OC1CCC(c2ncc(-c3ccc(NC(=O)NCc4ccccc4)cc3S(=O)(=O)NC(C)(C)C)s2)CC1 (centres unmarked) [Compound 21]	≤ 100 nM	58.6%	78.3%	–
CC(C)OC(=O)NC1CCC(c2ncc(-c3ccc(NC(=O)NCc4ccncc4)cc3S(=O)(=O)NC(C)(C)C)s2)CC1 (centres unmarked) [Compound 22]	≤ 1000 nM	83.1%	89%	Papp A→B [2]: 1.1 ×10⁻⁶ cm/s; Papp B→A [2]: 21 ×10⁻⁶ cm/s; efflux ratio [2]: 18.7
CC(C)OC(=O)NC1CCC(c2ncc(-c3ccc(NC(=O)NCc4ccc(F)cc4)cc3S(=O)(=O)NC(C)(C)C)s2)CC1 (centres unmarked) [Compound 23]	≤ 100 nM	–	–	–
CC(C)OC(=O)NC1CCC(c2ncc(-c3ccc(NC(=O)NCc4cccnc4)cc3S(=O)(=O)NC(C)(C)C)s2)CC1 (centres unmarked) [Compound 25]	≤ 100 nM	–	–	–
CC(C)OC(=O)NC1CCC(c2ncc(-c3ccc(NC(=O)NCc4ccccc4F)cc3S(=O)(=O)NC(C)(C)C)s2)CC1 (centres unmarked) [Compound 28]	≤ 100 nM	66.9%	81%	–
CC(C)OC(=O)NC1CCC(c2ncc(-c3ccc(NC(=O)OCC4CCNCC4)cc3S(=O)(=O)NC(C)(C)C)s2)CC1 (centres unmarked) [Compound 33]	> 1000 nM	–	–	–
CC(C)OC(=O)NC1CCC(c2ncc(-c3ccc(NC(=O)OC[C@H]4CCCN4C)cc3S(=O)(=O)NC(C)(C)C)s2)CC1 (some centres unmarked) [Compound 34]	≤ 1000 nM	98.2%	96.8%	–
CC(C)OC(=O)NC1CCC(c2ncc(-c3ccc(NC(=O)OC[C@@H]4CCCN4C)cc3S(=O)(=O)NC(C)(C)C)s2)CC1 (some centres unmarked) [Compound 35]	≤ 1000 nM	98.8%	108%	–
CC(C)OC(=O)NC1CCC(c2ncc(-c3ccc(NC(=O)OC[C@H]4CCCN4)cc3S(=O)(=O)NC(C)(C)C)s2)CC1 (some centres unmarked) [Compound 36]	≤ 1000 nM	–	–	–
CC(C)OC(=O)NC1CCC(c2ncc(-c3ccc(NC(=O)OC[C@@H]4CCCN4)cc3S(=O)(=O)NC(C)(C)C)s2)CC1 (some centres unmarked) [Compound 37]	≤ 1000 nM	–	–	–
CC(C)OC(=O)NC1CCC(c2ncc(-c3ccc(NC(=O)O[C@@H](C)c4ccccc4)cc3S(=O)(=O)NC(C)(C)C)s2)CC1 (some centres unmarked) [Compound 41]	–	–	–	EC50 [3]: > 1000 nM
CC(C)OC(=O)Nc1ccc(-c2cnc(C3CCC(NC(=O)OC(C)(C)C)CC3)s2)c(S(=O)(=O)NC(C)(C)C)c1 (centres unmarked) [Compound 44]	> 1000 nM	36.2%	69.4%	Papp A→B [2]: 3.2 ×10⁻⁶ cm/s; Papp B→A [2]: 4.2 ×10⁻⁶ cm/s; efflux ratio [2]: 1.3
CC(C)(C)NS(=O)(=O)c1cc(NC(=O)NCc2ccccn2)ccc1-c1cnc(C2CCC(NC(=O)OC(C)(C)C)CC2)s1 (centres unmarked) [Compound 45]	≤ 100 nM	73.6%	84.4%	Papp A→B [2]: 7.6 ×10⁻⁶ cm/s; Papp B→A [2]: 10.8 ×10⁻⁶ cm/s; efflux ratio [2]: 1.4
CC(C)OC(=O)Nc1ccc(-c2cnc(C3CCC(NC(=O)OC4COC4)CC3)s2)c(S(=O)(=O)NC(C)(C)C)c1 (centres unmarked) [Compound 48]	≤ 1000 nM	–	–	–
COc1cc(NC(=O)OC(C)C)cnc1-c1ncc(-c2ccc(NC(=O)OCC3CCNCC3)cc2S(=O)(=O)NC(C)(C)C)s1 [Compound 56]	≤ 1000 nM	–	–	–
CC(C)OC(=O)Nc1ccc(-c2sc(C3CCC(NC(=O)OC(C)C)CC3)nc2F)c(S(=O)(=O)NC(C)(C)C)c1 (centres unmarked) [Compound 58]	≤ 1000 nM	–	–	–
CC(C)OC(=O)N[C@@H]1CC[C@@H](c2ncc(-c3ccc(NC(=O)NCc4ccccc4)cc3S(=O)(=O)NC(C)(C)C)s2)OC1 [Compound 59A]	≤ 1000 nM	–	–	–
CC(C)OC(=O)Nc1ccc(-c2cnc([C@H]3CC[C@H](NC(=O)OC(C)C)CO3)s2)c(S(=O)(=O)NC(C)(C)C)c1 [Compound 60B]	≤ 1000 nM	–	–	–
CC(C)OC(=O)Nc1ccc(-c2cnc(C3CC(NC(=O)OC(C)C)C3)s2)c(S(=O)(=O)NC(C)(C)C)c1 (centres unmarked) [Compound 65]	≤ 1000 nM	–	–	–
CC(C)OC(=O)N[C@H]1CC[C@@H](c2ncc(-c3ccc(NC(=O)NCc4ccccc4)cc3S(=O)(=O)NC(C)(C)C)s2)CC1 [Compound 66B]	≤ 1000 nM	–	–	–
C=S(=O)(NC(C)(C)C)c1cc(NC(=O)NCc2ccccc2)ccc1-c1cnc(N2CCC(NC(=O)OC(C)C)CC2)s1 (centres unmarked) [Compound 68]	≤ 1000 nM	–	–	–
